Consider one molecule from patent US20230054887A1, “SWEETENING AND TASTE-MASKING COMPOSITIONS, PRODUCTS AND USES THEREOF” (HEALTHTECH BIO ACTIVES, S.L.U., priority 2017, published 2023).

Holding throughout (format): in vivo
The nature of assay [1]: Taste profile by calibrated taste panel at concentrations equisweet to 3% sucrose. Particulars: 0- to 5-point scale. As for the experimental part:
The overall taste profile achieved with the sweetening composition of the present invention was evaluated and compared with the target taste profile of sucrose.
For this assay, all samples were evaluated at the same sweetness level, so each sample was used at a concentration which was equisweet to 3% sucrose. For each sample, the following parameters were evaluated: • Time to first sweetness detection • Time to maximum sweetness • Lingering (time for the sweetness to disappear) • Off-flavour: menthol, liquorice (any tastes that are different from sweetness) • Mouthfeel (density, i.e., the perceived viscosity in the mouth)
These evaluations were carried out by a calibrated taste panel, and conducted at room temperature.
Each of those parameters was evaluated on a 0- to 5-point scale. The values for sucrose were the reference, and were considered the target to emulate.

Assay [2] in a line: Masking bitterness of paracetamol, calibrated test panel, equibitter solution. The conditions noted are these: for Masking effect (real): 5000 ppm paracetamol. The method, then: The bitter masking effect against paracetamol was assayed. The anti-bittering effect was measured as a dose-response profile vs. a solution of paracetamol.
The following substances were assayed: NHDC alone, gamma-cyclodextrin alone and compositions comprising NHDC and gamma-cyclodextrin in a molar ratio 1:3 (Example B), 1.5:1 (Example C), 1:6 (Example D) and 1:10 (Example E).
For evaluating the masking effect of each substance, several aqueous solutions were prepared, each containing 5000 ppm of paracetamol and different concentrations of the tested substance, namely, 5, 25, 50, 75 and 100 ppm.
A calibrated test panel compared each solution with several solutions of paracetamol in water at different concentrations, and determined the equibitter paracetamol solution. The equibitter solution was calculated as the average of all the evaluations of the panel.
The masking effect was then calculated from the reference amount of paracetamol contained in each tested solution (5000 ppm) and the amount of paracetamol in the equibitter solution, using the following formula (Formula III): […]
For calculating the masking synergies between gamma-cyclodextrin and NHDC, first, for each amount of the combination (Examples A-E), using the molecular weight of each component, the amounts of gamma-cyclodextrin and NHDC contained therein were calculated. For example, 100 ppm of Example B contain 13.61 ppm of NHDC and 86.39 ppm of gamma-cyclodextrin. Then, the antibittering contribution of each component in the composition was calculated, on the basis of the data of Table 13. For example, 13.61 ppm of NHDC provide 9.44% masking effect and 86.39 ppm of gamma-cyclodextrin provide 5.46% masking effect (the antibittering effects for each specific concentration was calculated by interpolation of the data points in Table 13). Therefore, the expected masking effect is calculated as the sum of the contributions of each component. For example, the expected masking effect of 100 ppm of Example B is 14.90 (i.e., 9.44 plus 5.46).
Finally, the masking synergy is calculated using Formula IV: […]
The masking effect of Examples C (NHDC:gCD 1.5:1), D (NHDC:gCD 1:6) and E (NHDC:gCD 1:10) was also evaluated. Aqueous solutions were prepared, each one of them containing 5000 ppm of paracetamol and different concentrations of each one of the tested formulations Ex. C-E, namely, 25 and 50 ppm. Results are disclosed in Tables 15 to 17.

Assay [3] can be described thus: Masking bitterness of quinine, test panel, equibitter solution. The conditions noted are these: 250 ppm quinine. The method, then:
The bitter masking effect against quinine was assayed, following an analogous procedure to the one used in Example 10 for paracetamol.
The following substances were assayed: NHDC alone, beta-cyclodextrin alone, a composition comprising NHDC and beta-cyclodextrin in a molar ratio 1:1 (Example F) and a composition comprising NHDC and beta-cyclodextrin in a molar ratio 1:3 (Example G).
Analogously to Example 10, several aqueous solutions were prepared, each containing 250 ppm of quinine and different concentrations of the tested substance, namely, 5, 25, 50, 75 and 100 ppm. For each tested solution, a test panel determined the equibitter quinine solution, and the masking effect was calculated using a formula analogous to formula III (substituting 5000 with […]).
The masking synergies between beta-cyclodextrin and NHDC in Examples F and G were calculated following an analogous procedure to the one disclosed in Example 10. Therefore, using the molecular weight of each component, the amounts of beta-cyclodextrin and NHDC contained in each amount of the combinations of Examples F and G were calculated and, then, the antibittering contribution of each component was calculated on the basis of the data of Table 19. The expected masking effect was calculated as the sum of the contributions of each component, and, finally, the masking synergy was calculated (using Formula IV).

The structures appear in SMILES notation.

As for `COc1ccc(CCC(=O)c2c(O)cc(O[C@@H]3O[C@H](CO)[C@@H](O)[C@H](O)[C@H]3O[C@@H]3O[C@@H](C)[C@H](O)[C@@H](O)[C@H]3O)cc2O)cc1O` [NHDC, 1-[4-[[2-O-(6-Deoxy-α-L-mannopyranosyl)-β-D-glucopyranosyl]oxy]-2,6-dihydroxyphenyl]-3-(3-hydroxy-4-methoxyphenyl)propan-1-one], in assay [1], the Lingering is recorded as 4.00. The “Mouthfeel (density)” value in assay [1] is listed as 1.75. The “Off-flavour: menthol, licorice” value in assay [1] worked out at 3.25. Also, the “Time to first sweetness” value in assay [1] is 3.75. The “Time to maximum sweetness” value in assay [1] turned out to be 4.25. Besides, the Total sweetness in assay [1] was 5.00. Further, in assay [2] (5000 ppm paracetamol + 100 ppm tested substance), the Equibitter paracetamol solution was 3266.7 ppm. Also, the “Masking effect (real)” value is listed as 6.00% in assay [2] (tested substance 5 ppm); 14.00% in assay [2] (tested substance 25 ppm); 15.33% in assay [2] (tested substance 50 ppm); 27.00% in assay [2] (tested substance 75 ppm); 34.67% in assay [2] (tested substance 100 ppm); 5.00% in assay [3] (tested substance 5 ppm). The “Masking effect (real)” value in assay [3] (tested substance 25 ppm) was found to be 13.33%; in assay [3] (tested substance 50 ppm), 30.00%; in assay [3] (tested substance 75 ppm), 48.33%; in assay [3] (tested substance 100 ppm), 50.00%.
